Activity calls are given as the source filed them. The rule behind the calls is not given here.
Columns and labels:
Nucleic Acid = experiment: Compound was tested for the induction of DNA strand breaks at concentrations of 0.1 and 0.5 uM; Active; format: nucleic-acid assay
[1] = Concentration required for complete inhibition of relaxation of supercoiled plasmid (form I) at concentrations; format: functional
Ovarian cancer cell line = experiment: Clonogenic survival activity against human ovarian cancer cells (2008, C13*) cells; 0.01-10 range; format: functional, cell-based

- Activity (Nucleic Acid): Active
SMILES: CNC(=S)N(C)CCNc1c2ccccc2nc2ccccc12
- Inhibition concentration [1]: > 25 µM
- IC50 (Ovarian cancer cell line): 10 nM

Source: ChEMBL document CHEMBL1134912, “Cytotoxic acridinylthiourea and its platinum conjugate produce enzyme-mediated DNA strand breaks” (Bioorg Med Chem Lett, 2002)
